From patent publication US20250082674A1, “METHODS OF TREATING COPPER METABOLISM-ASSOCIATED DISEASES OR DISORDERS” (priority 2021, published 2025)
Read-outs that look alike come from different tables or passages of the source.

Experiments:
[1] = human, in vivo
Text: Pharmacokinetics: Blood samples for PK analysis were collected to measure plasma total molybdenum and plasma ultrafiltrate (PUF) molybdenum.

[2] = test system: ^64CuCl2 (^64Cu) intestinal absorption and hepatic copper uptake; assay: Example 2: Copper Absorption study, oral 64Cu PET-CT in healthy subjects; format: in vivo, human
Method: Blood was collected at several time points to assess plasma copper kinetics. The study was carried out as a randomized, placebo-controlled intervention study. […] The study assessed the previously listed organs and the effect of anti-copper treatment by comparing the mean standard uptake value (SUV) in the organs of interest. […] The dynamic baseline scans and the subsequent static scans were compared across all treatments.

^64Cu in blood = test system: ^64Cu in blood
Method: 15 minutes after intravenous administration of ^64Cu, a dynamic PET-MR scan was performed, followed by additional scans at 1, 2, 6, 20, 48, 54, and 68 hours. Venous blood samples were collected for quantitation of radioactivity at multiple time points.

[3] = in vivo
Text: (§1) These participants had all intake (food and drink) and output (urine and feces) collected from Day-4 through Day-1 (baseline), from Day 1 through Day 8, and Day 25 through Day 39.

copper = test system: copper
Text: as §1

[4] = healthy subjects, after 15 hours

Bis-choline tetrathiomolybdate [BC-TTM]
Daily Mean AUC(0-48 weeks) PUF Mo, Mean [1]: 0.1 mmol/L
copper uptake in the liver one hour after oral 64Cu tracer ([2]; healthy subject, FIG. 25): virtually no copper uptake in the liver
Absorption of orally-administered copper compared to penicillamine, trientine, or placebo ([2]; healthy subjects): significantly reduced
blood levels of 64Cu ([2]; healthy subjects): reduced
mean SUV liver / hepatic uptake of labeled copper, comparison between treatments ([2]; healthy subjects, 1 hour and 15 hours after oral 64Cu): significantly lower
reduction of mean hepatic copper uptake ([2]; healthy subjects, 1 hr scan post treatment, oral 64Cu, 7 days treatment): ~90%
range of reduction in hepatic copper uptake ([2]; healthy subjects, 13 hour scan): 60%-90%
mean SUV liver compared with baseline or placebo ([2]; healthy subjects, FIG. 26): markedly reduced
mean SUV 64Cu Pancreas post treatment ([2]; healthy subjects, after 1 hour): lower than penicllamine, trientine and placebo
mean SUV 64Cu Urinary bladder post treatment ([2]; healthy subjects, after 1 hour): lower than penicllamine, trientine and placebo
mean SUV 64Cu Colon post treatment [2, 4]: higher than penicillamine and placebo
mean SUV 64Cu Gallbladder post treatment [2, 4]: lower than penicllamine, trientine and placebo
Intravenously injected ^64Cu in the blood (^64Cu in blood; Post (after BC-TTM treatment), 5 sec): 0.05
Intravenously injected ^64Cu in the blood (^64Cu in blood; Post (after BC-TTM treatment), 15 sec): 1.02
Intravenously injected ^64Cu in the blood (^64Cu in blood; Post (after BC-TTM treatment), 60 sec): 4.16
Intravenously injected ^64Cu in the blood (^64Cu in blood; Post (after BC-TTM treatment), 120 sec): 3.47 (4.65)
Intravenously injected ^64Cu in the blood (^64Cu in blood; Post (after BC-TTM treatment), 200 sec): 5.01
Intravenously injected ^64Cu in the blood (^64Cu in blood; Post (after BC-TTM treatment), 300 sec): 6.99
Intravenously injected ^64Cu in the blood (^64Cu in blood; Post (after BC-TTM treatment), 600 sec): 7.03
Intravenously injected ^64Cu in the blood (^64Cu in blood; Post (after BC-TTM treatment), 1 hour): 5.43
Intravenously injected ^64Cu in the blood (^64Cu in blood; Post (after BC-TTM treatment), 2 hours): 5.09
Intravenously injected ^64Cu in the blood (^64Cu in blood; Post (after BC-TTM treatment), 6 hours): 2.54
Intravenously injected ^64Cu in the blood (^64Cu in blood; Post (after BC-TTM treatment), 20 hours): 0.77 (0.41)
Intravenously injected ^64Cu in the blood (^64Cu in blood; Post (after BC-TTM treatment), 48 hours): 0.51
Intravenously injected ^64Cu in the blood (^64Cu in blood; Post (after BC-TTM treatment), 54 hours): 0.42
Intravenously injected ^64Cu in the blood (^64Cu in blood; Post (after BC-TTM treatment), 68 hours): 0.42
Intravenously injected ^64Cu in the blood (^64Cu in blood; Pre (before BC-TTM treatment), 5 sec): 0.00
Intravenously injected ^64Cu in the blood (^64Cu in blood; Pre (before BC-TTM treatment), 15 sec): 0.00
Intravenously injected ^64Cu in the blood (^64Cu in blood; Pre (before BC-TTM treatment), 60 sec): 5.30
Intravenously injected ^64Cu in the blood (^64Cu in blood; Pre (before BC-TTM treatment), 120 sec): 5.15 (4.28)
Intravenously injected ^64Cu in the blood (^64Cu in blood; Pre (before BC-TTM treatment), 200 sec): 5.13
Intravenously injected ^64Cu in the blood (^64Cu in blood; Pre (before BC-TTM treatment), 300 sec): 5.88
Intravenously injected ^64Cu in the blood (^64Cu in blood; Pre (before BC-TTM treatment), 600 sec): 4.35
Intravenously injected ^64Cu in the blood (^64Cu in blood; Pre (before BC-TTM treatment), 1 hour): 0.78
Intravenously injected ^64Cu in the blood (^64Cu in blood; Pre (before BC-TTM treatment), 2 hours): 0.64
Intravenously injected ^64Cu in the blood (^64Cu in blood; Pre (before BC-TTM treatment), 6 hours): 0.42
Intravenously injected ^64Cu in the blood (^64Cu in blood; Pre (before BC-TTM treatment), 20 hours): 0.32 (0.06)
Intravenously injected ^64Cu in the blood (^64Cu in blood; Pre (before BC-TTM treatment), 48 hours): 0.33
Intravenously injected ^64Cu in the blood (^64Cu in blood; Pre (before BC-TTM treatment), 54 hours): 0.28
Intravenously injected ^64Cu in the blood (^64Cu in blood; Pre (before BC-TTM treatment), 68 hours): 0.25
64Cu peak in blood and clearance from blood after treatment (^64Cu in blood; WD patients, FIG. 31): higher peak in the blood and its clearance from blood was delayed
64Cu in the blood after versus before treatment (^64Cu in blood; WD patients, from 1 hour to 48 hours after intravenous 64Cu): significantly more
participants in whom dose escalation was not carried out due to elevation of liver enzymes [3]: 2 participants
Increase from Baseline in Directly Measured NCC, Mean (SD) (copper; Study 204, Day 1, 2 Hours Post-Dose): 0.5004 (0.7105) μmol/L
Increase from Baseline in Directly Measured NCC, Mean (SD) (copper; Study 204, Day 1, 4 Hours Post-Dose): 1.96 (1.804) μmol/L
Increase from Baseline in Directly Measured NCC, Mean (SD) (copper; Study 204, Day 1, 5 Hours Post-Dose): 2.719 (2.534) μmol/L
Increase from Baseline in Directly Measured NCC, Mean (SD) (copper; Study 204, Day 1, 6 Hours Post-Dose): 2.324 (2.086) μmol/L
Increase from Baseline in Directly Measured NCC, Mean (SD) (copper; Study 204, Day 1, 8 Hours Post-Dose): 2.402 (2.183) μmol/L
Increase from Baseline in Directly Measured NCC, Mean (SD) (copper; Study 204, Day 1, 12 Hours Post-Dose): 1.725 (1.575) μmol/L
Increase from Baseline in Directly Measured NCC, Mean (SD) (copper; Study 204, Day 1, 24 Hours Post-Dose): 1.063 (1.074) μmol/L
Increase from Baseline in Directly Measured NCC, Mean (SD) (copper; Study 204, Day 4, Pre-Dose): 2.677 (1.297) μmol/L
Increase from Baseline in Directly Measured NCC, Mean (SD) (copper; Study 204, Day 5, Pre-Dose): 3.144 (1.37) μmol/L
Increase from Baseline in Directly Measured NCC, Mean (SD) (copper; Study 204, Day 6, Pre-Dose): 3.574 (1.57) μmol/L
Increase from Baseline in Directly Measured NCC, Mean (SD) (copper; Study 204, Day 7, Pre-Dose): 3.7 (1.709) μmol/L
Increase from Baseline in Directly Measured NCC, Mean (SD) (copper; Study 204, Day 25, 2 Hours Post-Dose): 2.551 (1.063) μmol/L
Increase from Baseline in Directly Measured NCC, Mean (SD) (copper; Study 204, Day 25, 4 Hours Post-Dose): 3.443 (2.008) μmol/L
Increase from Baseline in Directly Measured NCC, Mean (SD) (copper; Study 204, Day 25, 5 Hours Post-Dose): 3.38 (2.478) μmol/L
Increase from Baseline in Directly Measured NCC, Mean (SD) (copper; Study 204, Day 25, 6 Hours Post-Dose): 4.44 (2.949) μmol/L
Increase from Baseline in Directly Measured NCC, Mean (SD) (copper; Study 204, Day 25, 8 Hours Post-Dose): 5.101 (2.491) μmol/L
Increase from Baseline in Directly Measured NCC, Mean (SD) (copper; Study 204, Day 25, 12 Hours Post-Dose): 4.917 (2.463) μmol/L
Increase from Baseline in Directly Measured NCC, Mean (SD) (copper; Study 204, Day 25, 24 Hours Post-Dose): 3.438 (1.754) μmol/L
Increase from Baseline in Directly Measured NCC, Mean (SD) (copper; Study 204, Day 25, −0.5 Hours): 2.121 (0.611) μmol/L
Increase from Baseline in Directly Measured NCC, Mean (SD) (copper; Study 204, Day 27, Pre-Dose): 2.767 (1.755) μmol/L
Increase from Baseline in Directly Measured NCC, Mean (SD) (copper; Study 204, Day 28, Pre-Dose): 2.327 (1.376) μmol/L
Increase from Baseline in Directly Measured NCC, Mean (SD) (copper; Study 204, Day 29, 2 Hours Post-Dose): 2.814 (0.884) μmol/L
Increase from Baseline in Directly Measured NCC, Mean (SD) (copper; Study 204, Day 29, 4 Hours Post-Dose): 3.38 (1.494) μmol/L
Increase from Baseline in Directly Measured NCC, Mean (SD) (copper; Study 204, Day 29, 5 Hours Post-Dose): 4.078 (1.939) μmol/L
Increase from Baseline in Directly Measured NCC, Mean (SD) (copper; Study 204, Day 29, 6 Hours Post-Dose): 4.686 (2.237) μmol/L
Increase from Baseline in Directly Measured NCC, Mean (SD) (copper; Study 204, Day 29, 8 Hours Post-Dose): 5.305 (2.311) μmol/L
